According to patent US11485725B2, “Derivatives of piperlongumine and uses thereof” (Auransa Inc., priority 2017, dated 2022):
Read-outs that look alike come from different tables or passages of the source.

Assays:
MOLP-8 = assay: In vitro cell viability assay (CellTiter-Glo, ATP levels), multiple myeloma cells; format: cell-based; details: Homo sapiens, MOLP-8, 168 h, 7-day incubation, CellTiter-Glo, average values; read-out: MOLP-8 IC50
In short: (§1)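 Cells plated overnight, then exposed to compounds over a concentration range for 7 days at 37 °C, 5% CO2. Viability read as ATP luminescence (CellTiter-Glo), normalised to positive and negative control wells; IC50 from Hill-equation non-linear regression of concentration–response curves.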

DU4475 = assay: In vitro cell viability assay (CellTiter-Glo, ATP levels), triple negative breast cancer cells; format: cell-based; details: Homo sapiens, DU-4475, 168 h, read-out: DU4475 IC50
In short: as §1

[1] = system: HCT116 (colorectal cancer) cells; assay: Resazurin-based cell viability assay using colorectal cancer cells; details: Homo sapiens, HCT-116, 72 hr incubation
In short: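 HCT116 cells in DMEM/10% FBS grown 24 h, then exposed to serially diluted compounds for 72 h at 37 °C. Viability read as resazurin (1 mM) fluorescence (ex 535/em 590 nm) after 4–6 h; background-subtracted, normalised to DMSO control, IC50 fitted from percent survival.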

[2] = In vivo pharmacokinetic analysis, plasma; design: species or system Balb/C female mice; details: mice, result in words
Experimental: In Vivo Pharmacokinetic Analysis
Age 8 to 9 weeks Balb/C female mice were used for this study. The mice were maintained in a special pathogen-free environment and in disposable cages. Animal room was set to maintain temperature and relative humidity at 23° C.±3° C. and 55%±15%, respectively. Housing room was on a 12:12 light/dark cycle. Water was supplied ad libitum to each cage via water bottles. All mice were fed rodent diet with 18% protein. All animals were weighed before commencement of the study.
Compound 1 was stored at 4° C. protected from light. Dosing solutions were used within 2 hours of preparation. Compound 1 was formulated within 2 hours prior to dosing by adding the pre-calculated volume of PEG 400 (40% of total solution volume). Formulated compound 1 was vortexed and sonicated until a clear solution was formed. […]
The concentration of Compound 1 was determined by a UPLC-TIS-MS-MS method (ultra performance liquid chromatography-turbo ion spray-tandem mass spectrometry). […]
Mass spectrometric analysis was performed using an AB Sciex API5000 with Turbo Ion Spray interface operating in a positive ionization mode. Quantification was performed using multiple reaction monitoring (MRM) method with the transitions of (m/z) 316.104→(m/z) 219.014 for Compound 1 and (m/z) 455.346→(m/z) 165 for verapamil (internal standard). […]

[3] = In vitro microsome stability analyses; format: in vitro ADME; details: result in words
[4] = 7-day incubation, CellTiter-Glo, average values

Row | IC50 (MOLP-8) [µM] | IC50 (DU4475; [4]) [µM] | IC50 [1] [µM] | SMILES | in vivo plasma half-life (t1/2) as compared to piperlongumine [2] | potency and/or metabolic stability [3] | IC50 (DU4475) [µM]
1 | 0.74 | 0.83 | 1.9 | COc1cc(/C=C/C(=O)N2CCC=CC2=O)cc2c1OCCO2 [Compound 1, (E)-1-(3-(8-methoxy-2,3-dihydrobenzo[b][1,4]dioxin-6-yl)acryloyl)-5,6-dihydropyridin-2(1H)-one] | increased in vivo plasma half-life (t1/2) as compared to piperlongumine | demostrated potency and/or metabolic stability | –
2 | 4.32 | 4.75 | 9.72 | CC(C)(C)OC(=O)N1CCC(/C=C(\C(=O)N2CCC=CC2=O)c2ccccc2)CC1 [Compound 92, (Z)-tert-butyl 4-(3-oxo-3-(2-oxo-5,6-dihydropyridin-1(2H)-yl)-2-phenylprop-1-enyl)piperidine-1-carboxylate] | – | – | –

Row | SMILES | IC50 (MOLP-8) [µM] | IC50 (DU4475; [4]) [µM] | IC50 [1] [µM] | in vivo plasma half-life (t1/2) as compared to piperlongumine [2] | potency and/or metabolic stability [3] | IC50 (DU4475) [µM]
3 | CC(C)(C)OC(=O)N1CCC(/C=C(/C(=O)N2CCC=CC2=O)c2ccccc2)CC1 [Compound 91, (E)-tert-butyl 4-(3-oxo-3-(2-oxo-5,6-dihydropyridin-1(2H)-yl)-2-phenylprop-1-enyl)piperidine-1-carboxylate] | 3.2 | – | 9.16 | – | – | 4.14
